Values joined by “and” are separate entries in the source; they are usually repeats but may differ in a detail not shown here. Identical values can stand only once. Counter-ions that a name gives are not always drawn.

Consider eleven molecules from patent publication US4450170A, “Treatment of diarrhoea with 2-aminoimidazoline derivatives” (Beecham Group Limited, priority 1980, dated 1984).

Assay [1] concerns fluid secretion caused by the enterotoxin(s) present in culture filtrate from an enteropathogenic strain of E. coli. Briefly: animal or person. The class given is in vivo, infant mice. Conditions: for activity in the reduction of fluid secretion (in words): mouse, in vivo.
The test system of assay [2] is diarrhoea induced by culture filtrate from an enteropathogenic strain of E. coli. The arrangement: species or system 2-4 day old piglets. The conditions noted are these: in vivo, po.
The next assay relates to E. coli P16. Briefly: Inhibition of Diarrhoea Resulting from E. coli Infection (piglets). The conditions noted are these: Group B, Neomycin 30 mg/Kg po. In kind it is in vivo, colostrum deprived piglets. As to the method: 2-4 day old piglets were dosed with the compound orally 45 mins prior to oral challenge with 25 ml of culture filtrate prepared from an enteropathogenic strain of E. coli. Control animals received drug vehicle 45 mins prior to challenge with a similar volume of material. […] After 6 hours observation some piglets were given a second dose of drug (or placebo) and observations were continued for a further six hours. The percentage inhibition in treated animals was determined as: [formula]
Colostrum deprived piglets were infected with 5 ml of an overnight culture containing 10^8 -10^9 viable E. coli P16/ml. The following day, piglets were matched by weight and scour score and then treated and observed for 6 hours in a similar manner to toxin challenged piglets, as described above.

On to `Clc1cc(N=C2NCCN2)cc(Cl)c1NC1=NCCN1` [Example 16, 2-(2,6-dichloro-4-imidazolino-2-iminophenylimino)imidazolidine], for which, in assay [1] (Mus musculus, po), the inhibition in vivo at 100 mg/kg worked out at 29% and 400 mg/kg produced 41% inhibition in vivo.
In assay [1] (Mus musculus, po), `CCNc1cc(Cl)c(NC2=NCCN2)c(Cl)c1` [R5 H, R6 H, Ra p-NHEt, Rb o-Cl, R11 Cl] displayed an inhibition in vivo at 10 mg/kg of 59%, an inhibition in vivo at 50 mg/kg of 79% and an inhibition in vivo at 200 mg/kg of 97%.
Regarding `CN(C1=NCCN1)c1c(Cl)cc(N)cc1Cl` [R5 H, R6 CH3, Ra p-NH2, Rb o-Cl, R11 Cl], in assay [1] (Mus musculus, po), the inhibition in vivo at 10 mg/kg amounted to 37%, at 50 mg/kg the inhibition in vivo was 62% and 200 mg/kg produced 72% inhibition in vivo.
On the same counts, the results for `CNC(=Nc1cc(Cl)c(NC2=NCCN2)c(Cl)c1)NC` [Example 17, 2-[2,6-dichloro-4-(1,3-dimethylguanidino)phenylimino]imidazolidine] are 33%, 37% and 53%.
In the case of `CN(C)C(=O)C(CCN1CCC(O)(c2ccc(Cl)cc2)CC1)(c1ccccc1)c1ccccc1` [Loperamide, reference compound], the “activity in the reduction of fluid secretion (in words)” value in assay [1] was “considerably less active than the p-amino Clonidine dihydrochloride”.
In assay [1] (Mus musculus, po), `Cc1cc(N)cc(C)c1N=C1NCCN1` [Example 13, 2-(4-amino-2,6-dimethylphenylimino)imidazolidine] showed an inhibition in vivo at 10 mg/kg of 66%, an inhibition in vivo at 50 mg/kg of 54% and an inhibition in vivo at 200 mg/kg of 69%. For the same molecule, in assay [2], the “% inhibition of scour” value was 78% and 69% and 62%; the “Mean Scour Score ± SEM, drug treated” value is 0.5 ± 0.2 and 0.6 ± 0.3 and 0.6 ± 0.2.
In assay [1] (Mus musculus, po), `CCN(CC)Cc1cc(Cl)c(N=C2NCCN2)c(Cl)c1` [Example 15, 2-(2,6-dichloro-4-diethylaminomethylphenylimino)imidazolidine] showed an inhibition in vivo at 50 mg/kg of 28%, an inhibition in vivo at 200 mg/kg of 37% and an inhibition in vivo at 500 mg/kg of 42%.
Take `NCc1cc(Cl)c(N=C2NCCN2)c(Cl)c1` [Example 14, 2-(4-aminomethyl-2,6-dichlorophenylimino)imidazolidine]: in assay [1] (Mus musculus, po), the inhibition in vivo at 50 mg/kg came out at 38% and the inhibition in vivo at 200 mg/kg worked out at 39%.
As for `Nc1cc(Br)c(NC2=NCCN2)c(Br)c1` [Example 12, 2-(4-amino-2,6-dibromophenylimino)imidazolidine], in assay [1] (Mus musculus, po), the inhibition in vivo at 10 mg/kg is 48%, the inhibition in vivo at 50 mg/kg worked out at 65% and the inhibition in vivo at 200 mg/kg came out at 85%.
For Neomycin, the “% inhibition of scour” value with E. coli P16 is given as 16%. Further, in the assay on E. coli P16 (placebo 2.9 ± 0.1), the “Mean Scour Score ± SEM” value stood at 2.4 ± 0.2. In addition, the “Mortality over 7 days” value in the assay with E. coli P16 (placebo 25%) was 0%.
In assay [1] (Mus musculus, po), `Nc1cc(Cl)c(NC2=NCCN2)c(Cl)c1` [p-Amino clonidine dihydrochloride, p-amino Clonidine dihydrochloride] had an inhibition in vivo at 10 mg/kg of 59% and an inhibition in vivo at 50 mg/kg of 78%. Besides, the median effective dose (ED50) in assay [1] (Mus musculus, po, read-out: calculated ED50) was 0.25 mg/kg. The “activity in the reduction of fluid secretion (in words)” value in assay [1] is listed as “high level of activity”. In assay [2], the “% inhibition of scour” value turned out to be 79% and the “Mean Scour Score ± SEM, drug treated” value amounted to 0.4 ± 0.2.

In general, inhibition in vivo refers to the relative decrease from the control value, in per cent. Lower therefore signals a response near the control. One may read the ED50 as the dose at which the effect has come halfway, by size or by number of responders.
